Experimental data published in PubChem BioAssay (NCI).
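Tested at 5 concentrations; 48 h exposure; 96-well plates; endpoints linearly interpolated, else capped at highest concentration. Abbreviation: GI50, concentration required for 50% inhibition of growth. TGI is the concentration that stops growth completely.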

Assays:
Experiment in all cases: NCI anticancer screen, dose series, 48 h
K-562 leukemia = system: K-562 leukemia
TK-10 renal = system: TK-10 renal
COLO 205 colon = system: COLO 205 colon
HOP-62 NSCLC = system: HOP-62 NSCLC
KM12 colon = system: KM12 colon
HT29 colon = system: HT29 colon
SK-MEL-28 melanoma = system: SK-MEL-28 melanoma
ACHN renal = system: ACHN renal
UACC-257 melanoma = system: UACC-257 melanoma
SN12C renal = system: SN12C renal
NCI-H23 lung = system: NCI-H23 lung
SK-MEL-2 melanoma = system: SK-MEL-2 melanoma
SF-539 CNS = system: SF-539 CNS
SF-268 CNS = system: SF-268 CNS
UACC-62 melanoma = system: UACC-62 melanoma
SF-295 CNS = system: SF-295 CNS
OVCAR-5 ovarian = system: OVCAR-5 ovarian
MOLT-4 leukemia = system: MOLT-4 leukemia
EKVX NSCLC = system: EKVX NSCLC
786-0 renal = system: 786-0 renal
LOX IMVI melanoma = system: LOX IMVI melanoma
SNB-19 CNS = system: SNB-19 CNS
HS 578T breast = system: HS 578T breast
DU-145 prostate = system: DU-145 prostate
NCI-H522 lung = system: NCI-H522 lung
A549 NSCLC = system: A549 NSCLC
IGROV1 ovarian = system: IGROV1 ovarian
U251 CNS = system: U251 CNS
CCRF-CEM leukemia = system: CCRF-CEM leukemia
NCI-H460 lung = system: NCI-H460 lung
HOP-92 NSCLC = system: HOP-92 NSCLC
SK-MEL-5 melanoma = system: SK-MEL-5 melanoma
HCT-116 colon = system: HCT-116 colon
OVCAR-8 ovarian = system: OVCAR-8 ovarian
RPMI-8226 leukemia = system: RPMI-8226 leukemia
SR leukemia = system: SR leukemia
SW-620 colon = system: SW-620 colon
MCF7 breast = system: MCF7 breast
RXF 393 renal = system: RXF 393 renal
SNB-75 CNS = system: SNB-75 CNS
NCI-H226 lung = system: NCI-H226 lung
UO-31 renal = system: UO-31 renal
A498 renal = system: A498 renal
SK-OV-3 ovarian = system: SK-OV-3 ovarian
OVCAR-4 ovarian = system: OVCAR-4 ovarian
PC-3 prostate = system: PC-3 prostate
BT-549 breast = system: BT-549 breast
MDA-MB-231 breast = system: MDA-MB-231 breast
HCT-15 colon = system: HCT-15 colon
M14 melanoma = system: M14 melanoma
CAKI-1 renal = system: CAKI-1 renal
HCC-2998 colon = system: HCC-2998 colon
MALME-3M melanoma = system: MALME-3M melanoma
NCI/ADR-RES ovarian = system: NCI/ADR-RES ovarian
T-47D breast = system: T-47D breast
HL-60(TB) leukemia = system: HL-60(TB) leukemia
MDA-MB-435 = system: MDA-MB-435

COc1cc(OC)c(/C=C/S(=O)(=O)Cc2ccc(OC)c(NC(=O)CCC(=O)NO)c2)c(OC)c1
GI50 (K-562 leukemia): < 15.4 nM
TGI (K-562 leukemia): > 100000 nM
GI50 (TK-10 renal): > 100000 nM
TGI (TK-10 renal): > 100000 nM
GI50 (COLO 205 colon): 32.9 nM
GI50 (HOP-62 NSCLC): 67.5 nM
TGI (HOP-62 NSCLC): > 100000 nM
GI50 (KM12 colon): 30.7 nM
TGI (KM12 colon): > 100000 nM
GI50 (HT29 colon): 38.7 nM
TGI (HT29 colon): > 100000 nM
GI50 (SK-MEL-28 melanoma): > 84500 nM
TGI (SK-MEL-28 melanoma): > 100000 nM
GI50 (ACHN renal): 33.2 nM
TGI (ACHN renal): > 100000 nM
GI50 (UACC-257 melanoma): > 100000 nM
TGI (UACC-257 melanoma): > 100000 nM
GI50 (SN12C renal): 61.8 nM
TGI (SN12C renal): > 100000 nM
GI50 (NCI-H23 lung): 49.9 nM
TGI (NCI-H23 lung): > 100000 nM
TGI (SK-MEL-2 melanoma): > 37200 nM
GI50 (SF-539 CNS): 26.1 nM
TGI (SF-539 CNS): 432 nM
GI50 (SF-268 CNS): 102 nM
TGI (SF-268 CNS): > 100000 nM
GI50 (UACC-62 melanoma): 19.8 nM
TGI (UACC-62 melanoma): > 100000 nM
GI50 (SF-295 CNS): 14.4 nM
TGI (SF-295 CNS): > 100000 nM
GI50 (OVCAR-5 ovarian): 55 nM
TGI (OVCAR-5 ovarian): > 100000 nM
GI50 (MOLT-4 leukemia): 46.7 nM
TGI (MOLT-4 leukemia): > 100000 nM
GI50 (EKVX NSCLC): 57.3 nM
TGI (EKVX NSCLC): > 100000 nM
GI50 (786-0 renal): 43.6 nM
TGI (786-0 renal): > 100000 nM
GI50 (LOX IMVI melanoma): 29.6 nM
TGI (LOX IMVI melanoma): > 100000 nM
GI50 (SNB-19 CNS): 46.3 nM
TGI (SNB-19 CNS): > 100000 nM
GI50 (HS 578T breast): 23 nM
TGI (HS 578T breast): > 100000 nM
GI50 (DU-145 prostate): 45.1 nM
TGI (DU-145 prostate): > 100000 nM
GI50 (NCI-H522 lung): < 12.6 nM
GI50 (A549 NSCLC): 39.7 nM
TGI (A549 NSCLC): > 100000 nM
GI50 (IGROV1 ovarian): 38.6 nM
TGI (IGROV1 ovarian): > 100000 nM
GI50 (U251 CNS): 38.7 nM
TGI (U251 CNS): > 100000 nM
GI50 (CCRF-CEM leukemia): 35.3 nM
TGI (CCRF-CEM leukemia): > 100000 nM
GI50 (NCI-H460 lung): 34 nM
TGI (NCI-H460 lung): > 100000 nM
GI50 (HOP-92 NSCLC): 251 nM
TGI (HOP-92 NSCLC): > 100000 nM
GI50 (SK-MEL-5 melanoma): 29.9 nM
TGI (SK-MEL-5 melanoma): 256 nM
GI50 (HCT-116 colon): 27.8 nM
TGI (HCT-116 colon): > 100000 nM
GI50 (OVCAR-8 ovarian): 41.2 nM
TGI (OVCAR-8 ovarian): > 100000 nM
GI50 (RPMI-8226 leukemia): 45.2 nM
TGI (RPMI-8226 leukemia): > 100000 nM
GI50 (SR leukemia): 20.3 nM
TGI (SR leukemia): > 100000 nM
GI50 (SW-620 colon): 37.7 nM
TGI (SW-620 colon): > 100000 nM
GI50 (MCF7 breast): 25 nM
TGI (MCF7 breast): > 100000 nM
GI50 (RXF 393 renal): 21.4 nM
TGI (RXF 393 renal): > 100000 nM
GI50 (SNB-75 CNS): 18.4 nM
TGI (SNB-75 CNS): 3680 nM
GI50 (NCI-H226 lung): 99.5 nM
TGI (NCI-H226 lung): > 100000 nM
GI50 (UO-31 renal): 107 nM
TGI (UO-31 renal): > 100000 nM
GI50 (A498 renal): < 13.4 nM
TGI (A498 renal): 79.4 nM
GI50 (SK-OV-3 ovarian): 1170 nM
TGI (SK-OV-3 ovarian): > 100000 nM
TGI (OVCAR-4 ovarian): > 100000 nM
GI50 (PC-3 prostate): 31.1 nM
TGI (PC-3 prostate): > 100000 nM
GI50 (BT-549 breast): 24.4 nM
TGI (BT-549 breast): 72.4 nM
GI50 (MDA-MB-231 breast): 47.8 nM
TGI (MDA-MB-231 breast): > 100000 nM
GI50 (HCT-15 colon): 22.5 nM
TGI (HCT-15 colon): > 100000 nM
GI50 (M14 melanoma): 18.8 nM
TGI (M14 melanoma): > 100000 nM
GI50 (CAKI-1 renal): < 15.9 nM
TGI (CAKI-1 renal): > 100000 nM
GI50 (HCC-2998 colon): 34.5 nM
TGI (HCC-2998 colon): > 100000 nM
GI50 (MALME-3M melanoma): > 100000 nM
TGI (MALME-3M melanoma): > 100000 nM
GI50 (NCI/ADR-RES ovarian): < 15.8 nM
TGI (NCI/ADR-RES ovarian): > 100000 nM
GI50 (T-47D breast): 30600 nM
TGI (T-47D breast): > 100000 nM
GI50 (HL-60(TB) leukemia): 26.2 nM
TGI (HL-60(TB) leukemia): 88 nM
TGI (MDA-MB-435): 31.5 nM
